Laboratory results reported in patent US12195432B2, “2-arylbenzimidazoles as Ppargc1a activators for treating neurodegenerative diseases” (THE BOARD OF TRUSTEES OF THE LELAND STANFORD JUNIOR …, priority 2018, dated 2025).

Experiments:
[1] = test system: TNF-α production by BV2 cells or PBMC; test: Cellular assay to measure TNF-α inhibition (LPS stimulation, ELISA); assay type: cell-based, murine or human; conditions: 100 ng/ml LPS over 24 hours, relative to DMSO vehicle, compound concentration and cell type not given
Excerpt: Oxidative metabolism exerts an anti-inflammatory effect on myeloid cell phenotype (O'Neill L A, Front Immunol. 2014) and Ppargc1a can promote this energy metabolic pathway (Spiegelman B M, Novartis Found Symp. 2007). Thus, pharmacological activation of Ppargc1a would be expected to inhibit the inflammatory response of myeloid cells. This phenomenon can be measured in cultures by a TNF-α inhibition assay.
Cellular Assay Protocol to Measure TNF-α Inhibition
The murine myeloid cell line BV2 or human peripheral blood mononuclear cells (PBMC) are cultured in RPMI 1640 media (Cat #11875119, Gibco) supplemented with 10% fetal bovine serum and 1% L-glutamine 1% penicillin. These cells are then stimulated with 100 ng/ml of lipopolysaccharide (LPS, O111:B4, Cat #L2630, Sigma) over 24 hours. LPS stimulation results in the secretion of the inflammatory cytokine TNF-α by BV2 cells or PBMC, which can be quantified by ELISA in culture supernatant samples per manufacturer's protocol (Cat #558273 for BV2 and Cat #558299 for PBMC, BD Biosciences). To determine whether example compounds 1-78 inhibit TNF-α production by BV2 cells or PBMC, the cells were cultured in the presence of the compounds at different concentrations, and fold reduction in TNF-α production relative to TNF-α production by the same cells cultured in the presence of dimethylsulfoxide (as vehicle control) was determined.

[2] = Pharmacokinetic study (mouse): API levels in plasma, brain and liver; assay type: in vivo; conditions: mice, prodrug 10 mg/kg p.o., 0.5 h-4 h, API = example 1 compound; for plasma levels of API: FIG. 1; for brain levels of API: FIG. 2; for liver levels of API: FIG. 3
Protocol: Pharmacokinetic studies (mouse) were performed on the example 1, 6-P, 8-P, and 11-P compounds of the present invention. The example 1, 6-P, 8-P, and 11-P compounds were dosed in mice at 10 mg/kg p.o. (n=2). Plasma, brain, and liver were harvested at 0.5 h, 1 h, 2 h, and 4 h. The samples were analyzed by LCMS to determine levels of the example 1 compound, i.e., the active pharmaceutical ingredient (API) for prodrug examples 6-P, 8-P, and 11-P.

[3] = test system: Caco-2 cells; test: Caco-2 permeability assay; assay type: in vitro ADME; conditions: 10 μM, pH 7.4, 2 h; for Caco2 A → B: apparent permeability A→B, without elacridar
Protocol: Caco-2 Permeability Assay Protocol
The mixture was analyzed by LC-MS/MS.

Row | SMILES | TNFα Inhibition [1] | plasma levels of API [2] | brain levels of API [2] | liver levels of API [2] | other results
1 | CC(C)(C)c1ccc(-c2nc3ccccc3[nH]2)cc1 [Example 1, 2-(4-(tert-Butyl)phenyl)-1H-benzo[d]imidazole] | A (A = >80% inh.) |  |  |  | 
2 | CC(C)(C)c1ccc(-c2nc3ccccc3n2COC(=O)CCC(=O)O)cc1 [Example 6-P, 4-((2-(4-(tert-Butyl)phenyl)-1H-benzo[d]imidazol-1-yl)methoxy)-4-oxobutanoic acid] |  | measurable amounts | measurable amounts | measurable amounts | 
3 | Clc1ccc(-c2nc3ccccc3[nH]2)cc1 [Example 8, 2-(4-Chlorophenyl)-1H-benzo[d]imidazole] | C (C = <50% inh.) |  |  |  | 
4 | CC(C)(C)c1ccc(-c2nc3ccccc3n2COC(=O)c2ccc(CN)cc2)cc1.Cl [Example 8-P, (4-(((2-(4-(tert-butyl)phenyl)-1H-benzo[d]imidazol-1-yl)methoxy)carbonyl)-phenyl)methylammonium hydrochloride] |  | measurable amounts | measurable amounts | measurable amounts | 
5 | CC(C)(C)c1ccc(-c2nc3ccccc3n2COP(=O)([O-])[O-])cc1.[Na+].[Na+] [Example 11-P, Disodium ((2-(4-(tert-butyl)phenyl)-1H-benzo[d]imidazol-1-yl)methyl) phosphate] |  | measurable amounts | measurable amounts | measurable amounts | 
6 | c1ccc(-c2nc3ccccc3[nH]2)cc1 [Example 14, 2-(Phenyl)-1H-benzo[d]imidazole] | C (C = <50% inh.) |  |  |  | 
7 | CC(C)(C)c1ccc(-c2nc3cc(C(F)(F)F)ccc3[nH]2)cc1 [Example 42, (4-tert-Butylphenyl)-5-(trifluoromethyl)-1H-benzo[d]imidazole] |  |  |  |  | Caco2 B → A ([3]; apparent permeability B→A): 1.2 nm/s
8 | CC(C)(C)c1cccc(-c2nc3ccccc3[nH]2)c1 [Example 58, 2-(3-tert-Butylphenyl)-1H-benzo[d]imidazole] |  |  |  |  | Caco2 A → B [3]: 21 nm/s
9 | CC(C)(C)c1ccc(-c2nc3cc(C(N)=O)ccc3[nH]2)cc1 [Example 75, 2-(4-tert-Butylphenyl)-1H-benzo[d]imidazol-5-carboxamide] |  |  |  |  | Caco2 A → B [3]: 16 nm/s
